In ChEMBL document CHEMBL5465560, “Selectivity Literature for EUbOPEN Chemogenomic Library” (2024):
Values belong to the compound of their own block, whether it stands above or below them.

How the values were obtained:
[1] = target: Ephrin type-A receptor 7 (Homo sapiens) (UniProt Q15375); test: Selectivity interaction (Kinase panel (DSF assay)) EUB0001559a EPHA7
[2] = target: Mitogen-activated protein kinase 14 (Homo sapiens, UniProt Q16539); test: Selectivity interaction (KinomeScan (DiscoverX)) EUB0000607a MAPK14; details: at 10 µM
[3] = target: Dual specificity protein kinase CLK2 (Homo sapiens, UniProt P49760); test: Selectivity interaction (KinomeScan (DiscoverX)) EUB0000595a CLK2; details: at 10 µM
Dual specificity protein kinase CLK2, sequence (P49760 whole entry, looked up): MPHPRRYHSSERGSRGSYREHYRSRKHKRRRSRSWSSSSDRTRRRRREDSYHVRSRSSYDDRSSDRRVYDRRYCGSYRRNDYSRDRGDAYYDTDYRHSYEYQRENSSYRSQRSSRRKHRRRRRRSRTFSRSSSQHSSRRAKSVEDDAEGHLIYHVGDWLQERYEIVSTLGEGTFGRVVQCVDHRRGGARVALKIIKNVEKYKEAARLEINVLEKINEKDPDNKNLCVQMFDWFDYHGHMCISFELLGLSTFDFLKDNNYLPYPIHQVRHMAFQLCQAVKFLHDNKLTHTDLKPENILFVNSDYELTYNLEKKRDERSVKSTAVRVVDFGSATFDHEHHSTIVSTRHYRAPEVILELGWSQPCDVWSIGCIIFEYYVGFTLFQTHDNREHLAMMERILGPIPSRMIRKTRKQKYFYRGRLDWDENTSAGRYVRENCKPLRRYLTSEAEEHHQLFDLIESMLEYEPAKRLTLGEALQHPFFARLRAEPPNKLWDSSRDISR

[4] = target: Hepatocyte growth factor-like protein (Homo sapiens) (UniProt P26927); test: Selectivity interaction (KinomeScan (DiscoverX)) EUB0000595a MST1; details: at 10 µM
[5] = target: SRSF protein kinase 2 (Homo sapiens) (UniProt P78362); test: Selectivity interaction (Upstate Kinase Profiler service (Millipore)) EUB0000056c SRPK2; details: at 1 µM
[6] = target: Citron Rho-interacting kinase (Homo sapiens) (UniProt O14578); details: at 10 µM
[7] = target: T1, Tyrosine-protein kinase Tec (Homo sapiens) (UniProt P42680); test: Selectivity interaction (ActivX KiNativ screen (kinase selectivity in THP-1 cell lysates)) EUB0000639a TEC; type: subcellular; details: lysate, at 1 µM
T1 sequence (whole entry): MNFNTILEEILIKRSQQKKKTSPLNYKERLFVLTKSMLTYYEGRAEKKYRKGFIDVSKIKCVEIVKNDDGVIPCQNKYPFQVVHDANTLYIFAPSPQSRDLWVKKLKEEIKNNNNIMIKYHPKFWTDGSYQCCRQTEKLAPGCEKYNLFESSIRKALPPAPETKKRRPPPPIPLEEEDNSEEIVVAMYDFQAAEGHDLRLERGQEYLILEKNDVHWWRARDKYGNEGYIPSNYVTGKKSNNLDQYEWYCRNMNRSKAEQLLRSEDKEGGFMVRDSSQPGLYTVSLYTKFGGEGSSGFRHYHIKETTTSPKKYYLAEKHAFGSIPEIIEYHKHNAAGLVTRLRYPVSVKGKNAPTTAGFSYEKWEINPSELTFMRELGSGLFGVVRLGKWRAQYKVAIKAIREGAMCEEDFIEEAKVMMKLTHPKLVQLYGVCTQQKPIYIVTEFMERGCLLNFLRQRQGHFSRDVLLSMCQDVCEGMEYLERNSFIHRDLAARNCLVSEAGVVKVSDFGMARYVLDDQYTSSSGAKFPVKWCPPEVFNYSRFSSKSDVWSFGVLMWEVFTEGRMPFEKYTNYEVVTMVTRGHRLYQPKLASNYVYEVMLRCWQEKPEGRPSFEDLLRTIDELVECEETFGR

[8] = tested on: Mast/stem cell growth factor receptor Kit (Homo sapiens), P10721 [A829P]; test: (§1) Selectivity interaction (KinomeScan (DiscoverX)) EUB0001049a KIT; details: at 1 µM
[9] = tested on: Mast/stem cell growth factor receptor Kit (Homo sapiens), P10721 [D816H]; test: as §1; details: at 1 µM
[10] = tested on: Mast/stem cell growth factor receptor Kit (Homo sapiens), P10721 [D816V]; test: as §1; details: at 1 µM
[11] = tested on: Mast/stem cell growth factor receptor Kit (Homo sapiens), P10721 [L576P]; test: as §1; details: at 1 µM
Mast/stem cell growth factor receptor Kit (Homo sapiens), P10721 [L576P], sequence (P10721 whole entry L576P): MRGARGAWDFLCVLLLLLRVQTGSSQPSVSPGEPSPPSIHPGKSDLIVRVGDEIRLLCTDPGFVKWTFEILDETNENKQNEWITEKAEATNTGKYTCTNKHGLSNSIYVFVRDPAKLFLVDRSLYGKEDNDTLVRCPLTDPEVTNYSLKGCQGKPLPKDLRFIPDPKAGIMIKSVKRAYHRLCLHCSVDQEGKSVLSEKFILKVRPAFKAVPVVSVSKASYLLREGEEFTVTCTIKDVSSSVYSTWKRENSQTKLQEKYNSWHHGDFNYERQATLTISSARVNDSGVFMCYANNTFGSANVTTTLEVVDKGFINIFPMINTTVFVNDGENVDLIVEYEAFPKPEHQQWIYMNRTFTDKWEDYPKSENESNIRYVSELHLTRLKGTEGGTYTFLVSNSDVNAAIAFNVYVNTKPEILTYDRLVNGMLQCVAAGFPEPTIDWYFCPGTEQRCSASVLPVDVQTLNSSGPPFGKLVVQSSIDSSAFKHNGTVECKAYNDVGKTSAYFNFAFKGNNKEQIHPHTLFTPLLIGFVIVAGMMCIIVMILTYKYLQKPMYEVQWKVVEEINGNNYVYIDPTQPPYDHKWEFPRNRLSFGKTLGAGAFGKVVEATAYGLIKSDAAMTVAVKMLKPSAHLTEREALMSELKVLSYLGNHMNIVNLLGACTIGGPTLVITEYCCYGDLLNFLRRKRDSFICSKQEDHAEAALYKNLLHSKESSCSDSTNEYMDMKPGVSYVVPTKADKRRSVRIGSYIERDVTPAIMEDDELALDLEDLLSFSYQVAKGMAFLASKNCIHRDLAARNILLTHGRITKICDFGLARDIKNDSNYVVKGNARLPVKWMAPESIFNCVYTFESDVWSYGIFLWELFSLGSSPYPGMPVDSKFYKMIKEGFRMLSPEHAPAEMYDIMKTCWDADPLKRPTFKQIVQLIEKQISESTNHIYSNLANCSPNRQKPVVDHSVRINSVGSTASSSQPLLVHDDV

[12] = tested on: Mast/stem cell growth factor receptor Kit (Homo sapiens), P10721 [V559D,T670I]; test: as §1; details: at 1 µM
[13] = tested on: Mast/stem cell growth factor receptor Kit (Homo sapiens), P10721 [V559D,V654A]; test: as §1; details: at 1 µM
Mast/stem cell growth factor receptor Kit (Homo sapiens), P10721 [V559D,V654A], sequence (P10721 whole entry V559D/V654A): as the sequence (P10721 whole entry L576P) above, with V559D, P576L, V654A counted along it

[14] = tested on: Mast/stem cell growth factor receptor Kit (Homo sapiens), P10721 [V559D]; test: as §1; details: at 1 µM
[15] = target: Mast/stem cell growth factor receptor Kit (Homo sapiens, UniProt P10721); test: as §1; details: at 1 µM
[16] = target: Mitogen-activated protein kinase kinase kinase 4 (Homo sapiens) (UniProt Q9Y6R4); test: Selectivity interaction (KinomeScan (DiscoverX)) EUB0001049a MAP3K4; details: at 1 µM
Mitogen-activated protein kinase kinase kinase 4 (Homo sapiens), sequence (Q9Y6R4 whole entry): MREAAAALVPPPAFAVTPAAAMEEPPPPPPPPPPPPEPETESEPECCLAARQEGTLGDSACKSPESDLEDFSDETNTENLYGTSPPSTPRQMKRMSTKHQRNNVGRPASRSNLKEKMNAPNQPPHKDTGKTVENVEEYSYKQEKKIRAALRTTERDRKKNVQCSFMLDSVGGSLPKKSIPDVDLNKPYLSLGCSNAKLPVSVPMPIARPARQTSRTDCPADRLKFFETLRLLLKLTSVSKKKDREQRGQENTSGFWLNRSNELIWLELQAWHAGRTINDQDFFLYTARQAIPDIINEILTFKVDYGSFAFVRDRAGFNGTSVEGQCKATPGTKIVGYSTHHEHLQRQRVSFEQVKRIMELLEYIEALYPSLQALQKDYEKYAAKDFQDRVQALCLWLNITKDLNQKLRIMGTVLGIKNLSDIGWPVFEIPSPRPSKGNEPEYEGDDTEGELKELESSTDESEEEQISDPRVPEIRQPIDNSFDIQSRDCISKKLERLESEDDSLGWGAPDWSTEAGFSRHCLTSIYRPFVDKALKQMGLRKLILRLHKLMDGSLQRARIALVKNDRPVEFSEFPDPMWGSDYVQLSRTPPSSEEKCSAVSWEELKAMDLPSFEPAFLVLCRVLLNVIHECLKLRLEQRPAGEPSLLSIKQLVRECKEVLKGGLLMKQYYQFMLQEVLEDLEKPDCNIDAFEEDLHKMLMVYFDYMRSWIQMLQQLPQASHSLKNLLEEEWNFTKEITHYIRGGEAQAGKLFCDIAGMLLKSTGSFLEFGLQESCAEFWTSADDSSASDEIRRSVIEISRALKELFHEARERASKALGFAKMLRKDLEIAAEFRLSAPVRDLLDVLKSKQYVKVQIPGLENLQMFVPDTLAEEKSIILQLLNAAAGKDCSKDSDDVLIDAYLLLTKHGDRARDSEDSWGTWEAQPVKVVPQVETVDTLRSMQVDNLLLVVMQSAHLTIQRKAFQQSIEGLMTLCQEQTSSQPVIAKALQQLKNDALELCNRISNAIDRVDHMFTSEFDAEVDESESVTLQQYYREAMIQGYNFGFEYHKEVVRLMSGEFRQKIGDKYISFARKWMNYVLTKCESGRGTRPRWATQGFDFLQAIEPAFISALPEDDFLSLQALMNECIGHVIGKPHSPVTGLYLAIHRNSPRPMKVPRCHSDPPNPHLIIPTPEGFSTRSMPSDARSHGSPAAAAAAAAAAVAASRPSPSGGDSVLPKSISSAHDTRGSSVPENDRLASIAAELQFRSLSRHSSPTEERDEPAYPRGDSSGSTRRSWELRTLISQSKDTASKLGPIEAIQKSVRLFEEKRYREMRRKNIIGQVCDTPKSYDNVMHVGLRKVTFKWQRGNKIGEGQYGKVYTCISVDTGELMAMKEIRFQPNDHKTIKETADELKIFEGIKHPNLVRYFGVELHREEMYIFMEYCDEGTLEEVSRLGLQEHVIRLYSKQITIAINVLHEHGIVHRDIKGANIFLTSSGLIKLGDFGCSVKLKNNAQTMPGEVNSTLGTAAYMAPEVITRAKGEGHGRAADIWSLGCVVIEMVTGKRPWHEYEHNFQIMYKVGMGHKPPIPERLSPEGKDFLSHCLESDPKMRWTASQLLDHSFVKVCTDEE

[17] = target: T2, Non-receptor tyrosine-protein kinase TNK1 (Homo sapiens) (UniProt Q13470); test: Selectivity interaction (KinomeScan (DiscoverX)) EUB0001049a TNK1; details: at 1 µM
T2 sequence (whole entry): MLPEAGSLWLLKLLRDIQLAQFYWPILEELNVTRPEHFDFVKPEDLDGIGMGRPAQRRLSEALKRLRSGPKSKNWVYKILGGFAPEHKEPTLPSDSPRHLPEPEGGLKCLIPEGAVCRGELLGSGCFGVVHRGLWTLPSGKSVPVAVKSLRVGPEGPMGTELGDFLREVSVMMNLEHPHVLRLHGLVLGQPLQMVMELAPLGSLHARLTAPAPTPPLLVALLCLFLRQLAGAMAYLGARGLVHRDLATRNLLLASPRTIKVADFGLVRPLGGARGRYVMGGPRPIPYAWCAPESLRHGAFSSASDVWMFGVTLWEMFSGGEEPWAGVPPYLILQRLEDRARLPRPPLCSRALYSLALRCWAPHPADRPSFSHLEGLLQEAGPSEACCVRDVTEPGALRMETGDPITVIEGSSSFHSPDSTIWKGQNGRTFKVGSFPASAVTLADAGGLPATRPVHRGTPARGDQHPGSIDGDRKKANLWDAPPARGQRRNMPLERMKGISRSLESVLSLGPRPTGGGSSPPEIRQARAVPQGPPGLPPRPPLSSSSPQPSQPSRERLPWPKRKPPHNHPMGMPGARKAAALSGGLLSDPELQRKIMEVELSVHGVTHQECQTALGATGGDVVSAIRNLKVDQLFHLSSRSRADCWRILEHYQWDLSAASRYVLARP

[18] = target: Ribosomal protein S6 kinase alpha-6 (Homo sapiens, UniProt Q9UK32); test: Selectivity interaction (KinomeScan (DiscoverX)) EUB0000092b RPS6KA6; details: at 10 µM
[19] = target: Serine/threonine-protein kinase SBK1 (Homo sapiens) (UniProt Q52WX2); test: Selectivity interaction (KinomeScan (DiscoverX)) EUB0000092b SBK1; details: at 10 µM

Ephrin type-A receptor 7 (Homo sapiens), sequence (Q15375 28-998 limits assumed): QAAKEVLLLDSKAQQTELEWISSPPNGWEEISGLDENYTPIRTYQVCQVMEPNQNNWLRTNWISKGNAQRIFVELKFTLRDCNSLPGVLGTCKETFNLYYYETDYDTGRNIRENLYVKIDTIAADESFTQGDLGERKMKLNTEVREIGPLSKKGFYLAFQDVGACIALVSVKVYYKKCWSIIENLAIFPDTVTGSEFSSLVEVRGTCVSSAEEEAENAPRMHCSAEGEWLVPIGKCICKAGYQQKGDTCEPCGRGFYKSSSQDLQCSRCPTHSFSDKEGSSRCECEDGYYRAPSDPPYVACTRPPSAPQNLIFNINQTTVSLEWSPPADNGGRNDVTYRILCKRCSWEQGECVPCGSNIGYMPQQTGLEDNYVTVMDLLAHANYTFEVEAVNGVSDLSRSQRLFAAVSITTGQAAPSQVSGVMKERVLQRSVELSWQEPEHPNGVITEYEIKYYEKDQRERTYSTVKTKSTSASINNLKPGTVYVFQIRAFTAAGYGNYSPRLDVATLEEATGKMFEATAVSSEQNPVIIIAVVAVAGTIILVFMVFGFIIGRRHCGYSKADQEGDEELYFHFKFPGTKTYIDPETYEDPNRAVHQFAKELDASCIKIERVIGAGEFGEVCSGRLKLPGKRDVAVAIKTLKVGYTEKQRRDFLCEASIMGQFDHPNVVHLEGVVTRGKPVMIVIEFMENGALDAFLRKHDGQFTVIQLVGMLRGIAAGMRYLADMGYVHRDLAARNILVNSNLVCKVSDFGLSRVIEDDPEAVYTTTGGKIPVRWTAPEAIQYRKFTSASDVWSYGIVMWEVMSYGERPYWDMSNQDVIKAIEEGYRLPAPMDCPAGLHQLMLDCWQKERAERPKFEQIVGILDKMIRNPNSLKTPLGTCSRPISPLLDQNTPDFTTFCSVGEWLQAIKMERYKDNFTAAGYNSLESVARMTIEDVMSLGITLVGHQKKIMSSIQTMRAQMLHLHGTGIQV

dTM [1]: 0.1 K
SMILES: CN(C(=O)c1cnn2cccnc12)c1cc2c(cc1N1CCOCC1)C(=O)N(C[C@@H](F)C(C)(C)O)C2

SMILES: CNC(=O)Nc1ccc(-c2nc(N3CC4CCC(C3)O4)c3cnn(C4CCC5(CC4)OCCO5)c3n2)cc1
% of control [2]: 100%

SMILES: COCC(=O)NC/C=C/c1ccc2ncnc(Nc3ccc(Oc4ccc(C)nc4)c(C)c3)c2c1 [CP-724714]
% of control [3]: 75%
% of control [4]: 87%

% of inhibition [5]: 33%
SMILES: Cc1ccc(-c2ccc3c(ccc4sc5c(c43)NC[C@@H](C)NC5=O)n2)cn1

SMILES: Cc1cc([C@@H](C)Nc2ccccc2C(=O)O)c2nc(N3CCOCC3)cc(=O)n2c1 [AZD-6482]
% of control [6]: 89%

% of inhibition [7]: -60.5%
SMILES: CC[C@@H]1[C@H](F)C(=O)N[C@@H]1COc1nccc2cc(C(N)=O)c(OC)cc12 [ZIMLOVISERTIB]

SMILES: COc1cc(Nc2nc(C)cc(-c3cnn4nc(OC)ccc34)n2)cc(C(F)(F)F)c1
% of control [8]: 84%
% of control [9]: 66%
% of control [10]: 96%
% of control [11]: 100%
% of control [12]: 85%
% of control [13]: 62%
% of control [14]: 80%
% of control [15]: 89%
% of control [16]: 87%
% of control [17]: 80%

SMILES: CCC(=O)N1CCN(c2ccc(-n3c(=O)ccc4cnc5ccc(-c6cnc7ccccc7c6)cc5c43)cc2C(F)(F)F)CC1
% of control [18]: 86%
% of control [19]: 88%
